Reference: patent US20200262865A1, “COMPOSITIONS AND METHODS FOR TREATING CLOSTRIDIUM ASSOCIATED DISEASES” (REGENTS OF THE UNIVERSITY OF MINNESOTA, priority 2016, published 2020)
Where two headings read alike, the source gives them in different places.

How the values were obtained:
[1] = tested on: Spores from a NAP1 strain of C. difficile; experiment: Optical density (OD600) C. difficile spore germination assay; format: cell-based, Clostridium difficile; conditions: BHIS with 2000 μM TCA, OD600 over 20 minutes; for IC100: read-out: concentration giving essentially complete inhibition of spore germination
NAP1 spores = experiment: Phase-contrast (microscope) spore count assay; format: cell-based, Clostridium difficile; conditions: for Percent Spore Germination t20 / Percent Spore Germination Relative to control / Percent Spore Germination t0: 10 μM bile acid analog; for Percent Spore Germination t20 / Percent Spore Germination Relative to control / inhibitor of spore germination (rating in words from Table 1 data): 2000 μM taurocholic acid; for Percent Spore Germination t20 / Percent Spore Germination Relative to control: after 20 minutes; for Percent Spore Germination t0: time zero, before exposure to TCA; for inhibitor of spore germination (rating in words from Table 1 data): 10 μM, 20 minutes
[2] = tested on: highly virulent NAP1 strain of C. difficile; conditions: cited from earlier work
[3] = rat, in vivo; cited from earlier work
[4] = Clostridioides difficile, 20 min

SMILES | IC100 [1, 4] [µM] | Percent Spore Germination t20 (NAP1 spores) [%] | Percent Spore Germination Relative to control (NAP1 spores) [%] | Percent Spore Germination t0 (NAP1 spores) [%] | inhibitor of spore germination (rating in words from Table 1 data) (NAP1 spores) | other results
COC(=O)CC[C@@H](C)[C@H]1CC[C@H]2[C@@H]3[C@H](O)C[C@@H]4C[C@H](OC)CC[C@]4(C)[C@H]3CC[C@]12C [KLS-1-029D] | 500 |  |  |  |  | 
CO[C@@H]1CC[C@@]2(C)[C@@H](C1)C[C@@H](O)[C@@H]1[C@@H]2CC[C@]2(C)[C@@H]([C@H](C)CCC(=O)O)CC[C@@H]12 [KLS-1-012B] |  |  |  |  |  | concentration giving partial inhibition of spore germination [1]: 0.1 mM
COC(=O)CC[C@@H](C)[C@H]1CC[C@H]2[C@@H]3[C@H](OC)C[C@@H]4C[C@H](O)CC[C@]4(C)[C@H]3CC[C@]12C [Comparative Example 14] | 500 |  |  |  |  | 
CO[C@@H]1CC[C@@]2(C)[C@@H](C1)C[C@H](OS(=O)(=O)[O-])[C@@H]1[C@@H]2CC[C@]2(C)[C@@H]([C@H](C)CCC(=O)N3CCCC3)CC[C@@H]12.[Na+] [Example 7] |  | 30 ± 6 | 9 ± 5 | 18 ± 2 | potent inhibitors | 
CO[C@@H]1CC[C@@]2(C)[C@@H](C1)C[C@H](O)[C@@H]1[C@@H]2CC[C@]2(C)[C@@H]([C@H](C)CCC(=O)O)CC[C@@H]12 [KLS-1-014B] |  |  |  |  |  | concentration giving partial inhibition of spore germination [1]: 0.50 mM
C[C@H](CCc1nnn[n-]1)[C@H]1CC[C@H]2[C@@H]3[C@H](O)C[C@@H]4C[C@H](O)CC[C@]4(C)[C@H]3CC[C@]12C.[Na+] [Example 14] |  | 22 ± 6 | 12 ± 6 | 15 ± 6 | potent inhibitors | IC100 [1]: 10 µM
COC(=O)CC[C@@H](C)[C@H]1CC[C@H]2[C@@H]3[C@@H](O)C[C@@H]4C[C@H](OC)CC[C@]4(C)[C@H]3CC[C@]12C [KLS-1-031C] | 500 |  |  |  |  | 
CO[C@@H]1CC[C@@]2(C)[C@@H](C1)C[C@H](O)[C@@H]1[C@@H]2CC[C@]2(C)[C@@H]([C@H](C)CCc3nnn[n-]3)CC[C@@H]12.[Na+] [Example 15] |  | 31 ± 4 | 26 ± 4 | 16 ± 4 | moderate inhibitors | 
C[C@H](CCC(=O)N1CCCC1)[C@H]1CC[C@H]2[C@@H]3[C@H](O)C[C@@H]4C[C@H](O)CC[C@]4(C)[C@H]3CC[C@]12C [Example 2] | 100 |  |  |  |  | 
CO[C@H]1C[C@@H]2C[C@H](O)CC[C@]2(C)[C@H]2CC[C@]3(C)[C@@H]([C@H](C)CCC(=O)O)CC[C@H]3[C@H]12 [Comparative Example 10, reference compound] |  | 71 ± 2 | 75 ± 2 | 25 ± 4 | weak inhibitors | concentration giving partial inhibition of spore germination [1]: 0.5 mM
CO[C@@H]1CC[C@@]2(C)[C@@H](C1)C[C@@H](O)[C@@H]1[C@@H]2CC[C@]2(C)[C@@H]([C@H](C)CCc3nnn[n-]3)CC[C@@H]12.[Na+] [Example 16] |  | 21 ± 4 | 8 ± 4 | 16 ± 4 | potent inhibitors | IC100 [1]: 5 µM
CCCCNC(=O)CC[C@@H](C)[C@H]1CC[C@H]2[C@@H]3[C@H](O)C[C@@H]4C[C@H](O)CC[C@]4(C)[C@H]3CC[C@]12C [Comparative Example 3] | 500 |  |  |  |  | 
COC(=O)CC[C@@H](C)[C@H]1CC[C@H]2[C@@H]3[C@@H](OC)C[C@@H]4C[C@H](O)CC[C@]4(C)[C@H]3CC[C@]12C [Comparative Example 11] | 500 |  |  |  |  | 
CC(=O)O[C@@H]1CC[C@@]2(C)[C@@H](C1)C[C@@H](OC(C)=O)[C@@H]1[C@@H]2CC[C@]2(C)[C@@H]([C@H](C)CCC(N)=O)CC[C@@H]12 [Comparative Example 20] | 50 |  |  |  |  | 
C[C@H](CCC1=NC(C)(C)CO1)[C@H]1CC[C@H]2[C@@H]3[C@@H](O)C[C@@H]4C[C@H](O)CC[C@]4(C)[C@H]3CC[C@]12C [Example 9] | 500 |  |  |  |  | 
CO[C@@H]1CC[C@@]2(C)[C@@H](C1)C[C@H](OC)[C@@H]1[C@@H]2CC[C@]2(C)[C@@H]([C@H](C)CCC(=O)O)CC[C@@H]12 [KLS-1-014A] |  |  |  |  |  | concentration giving partial inhibition of spore germination [1]: 1.0 mM
CCCCNC(=O)CC[C@@H](C)[C@H]1CC[C@H]2[C@@H]3[C@@H](O)C[C@@H]4C[C@H](O)CC[C@]4(C)[C@H]3CC[C@]12C [Comparative Example 4] | 500 |  |  |  |  | 
C[C@H](CCC(=O)Nc1cccc(S(=O)(=O)O)c1)[C@H]1CC[C@H]2[C@@H]3[C@H](O)C[C@@H]4C[C@H](O)CC[C@]4(C)[C@H]3C[C@H](O)[C@]12C [CamSA] |  |  |  |  |  | efficacy at inhibiting germination [2]: very little efficacy
CO[C@@H]1CC[C@@]2(C)[C@@H](C1)C[C@H](OS(=O)(=O)[O-])[C@@H]1[C@@H]2CC[C@]2(C)[C@@H]([C@H](C)CCc3nnn[n-]3)CC[C@@H]12.[Na+].[Na+] [Example 17] |  | 44 ± 3 | 42 ± 3 | 21 ± 3 | moderate inhibitors | 
CO[C@@H]1CC[C@@]2(C)[C@@H](C1)C[C@@H](OS(=O)(=O)[O-])[C@@H]1[C@@H]2CC[C@]2(C)[C@@H]([C@H](C)CCc3nnn[n-]3)CC[C@@H]12.[Na+].[Na+] [Example 18] |  | 48 ± 11 | 51 ± 11 | 20 ± 11 | moderate inhibitors | IC100 [1]: 25 µM
COC(=O)CC[C@@H](C)[C@H]1CC[C@H]2[C@@H]3C[C@H](O)[C@@H]4C[C@H](O)CC[C@]4(C)[C@H]3CC[C@]12C [Example 3] | 500 |  |  |  |  | 
CC(CCC(=O)O)C1CCC2C3C(OS(=O)(=O)O)CC4CC(O)CCC4(C)C3CCC12C (stereo not shown) [C7-sulfated UDCA] |  |  |  |  |  | absorption from the colon [3]: poorly absorbed
COC(=O)CC[C@@H](C)[C@H]1CC[C@H]2[C@@H]3[C@H](O)C[C@@H]4C[C@H](O)CC[C@]4(C)[C@H]3CC[C@]12C [Comparative Example 1, reference compound] | 500 | 71 ± 1 | 73 ± 1 | 25 ± 6 | weak inhibitors | 
C[C@H](CCC(=O)N1CCCC1)[C@H]1CC[C@H]2[C@@H]3[C@@H](O)C[C@@H]4C[C@H](O)CC[C@]4(C)[C@H]3CC[C@]12C [Example 1] | 100 |  |  |  |  | 
C[C@H](CCc1nnn[nH]1)[C@H]1CCC2C3C(CC[C@@]21C)[C@@]1(C)CC[C@@H](O)CC1C[C@@H]3O (stereo partly shown) [Example 12] |  | 29 ± 4 | 19 ± 4 | 17 ± 4 | moderate inhibitors | 
COC(=O)CC[C@@H](C)[C@H]1CC[C@H]2[C@@H]3[C@@H](O)C[C@@H]4C[C@H](O)CC[C@]4(C)[C@H]3CC[C@]12C [Comparative Example 2] | 100 |  |  |  |  | 
